Measurements as given in US8952024B2, “Herbicidal pyrimidone derivatives” (E I du Pont de Nemours and Company, priority 2009, dated 2015).
Where two headings read alike, the source gives them in different places.

Assays:
Format in all cases: in vivo
[1] = system: pigweed (Amaranthus retroflexus); assay: Test B pre-/postemergence plant response; details: for pest or weed control at 31 g/ha: 31 g ai/ha; for pest or weed control at 125 g/ha: 125 g ai/ha
Summary of the method: (§1)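 Compound in solvent + surfactant applied pre-em (loam/sand) or post-em (plants 2–18 cm, peat medium); greenhouse hold 13–15 days; visual 0–100 control score.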

[2] = system: galium (catchweed bedstraw, Galium aparine); assay: Test B pre-/postemergence plant response; details: Preemergence
Summary of the method: as §1

[3] = system: nightshade (eastern black nightshade, Solanum ptycanthum); assay: Test B pre-/postemergence plant response; details: Preemergence
Summary of the method: as §1

[4] = system: wild oat (Avena fatua); assay: Test B pre-/postemergence plant response; details: for pest or weed control at 31 g/ha: 31 g ai/ha; for pest or weed control at 125 g/ha: 125 g ai/ha
Summary of the method: as §1

[5] = system: sunflower (common oilseed sunflower, Helianthus annuus); assay: Test B pre-/postemergence plant response; details: Preemergence
Summary of the method: as §1

[6] = system: ducksalad (Heteranthera limosa); assay: Test B flooded paddy test; details: Heteranthera limosa, 360 h
Summary of the method: (§2)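 Ratings are visual, 0–100 (100 = complete control), taken versus untreated controls 13 to 15 days after treatment in the greenhouse. Compound went straight into paddy water held 3 cm above soil, applied to 2-leaf-stage plants of four species.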

[7] = system: umbrella sedge (Cyperus difformis); assay: Test B flooded paddy test; details: Cyperus difformis, 360 h
Summary of the method: as §2

[8] = system: barnyardgrass (Echinochloa crus-galli); assay: Test B flooded paddy test; details: Echinochloa crus-galli, 360 h
Summary of the method: as §2

[9] = system: rice (Oryza sativa); assay: Test B flooded paddy test; details: Oryza sativa
Summary of the method: as §2

[10] = system: chickweed (Stellaria media); assay: Test B postemergence plant response
Summary of the method: (§3)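 Plants grown in peat/vermiculite medium were sprayed postemergence at 2–18 cm height (1- to 4-leaf stage). After 13–15 days in the greenhouse, response was rated visually against untreated controls on a 0–100 scale (0 no effect, 100 complete control).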

[11] = system: windgrass (Apera spica-venti); assay: Test B postemergence plant response
Summary of the method: as §3

[12] = system: winter barley (Hordeum vulgare); assay: Test B postemergence plant response
Summary of the method: as §3

[13] = system: canarygrass (Phalaris minor); assay: Test B postemergence plant response
Summary of the method: as §3

[14] = 62 g ai/ha, postemergence, 0 is no effect, 100 is complete control, 13 to 15 days
[15] = Preemergence, 250 g ai/ha, 0 to 100 scale
[16] = 31 g ai/ha, scale 0 to 100 (0 no effect, 100 complete control)
[17] = 62 g ai/ha, scale 0 to 100, 0 no effect, 100 complete control
[18] = 125 g ai/ha, scale 0 to 100, 0 no effect, 100 complete control

Compound: O=C1CCCC(O)=C1C(=O)c1cnc(-c2cccnc2)n(-c2ccccc2)c1=O [Compound 113, 5-[(2-hydroxy-6-oxo-1-cyclohexen-1-yl)carbonyl]-3-phenyl-2-(3-pyridinyl)-4(3H)-pyrimidone]
- Pigweed plant response rating (0 to 100 scale) [1, 14]: 100
- pest or weed control at 31 g/ha ([1]; Amaranthus retroflexus, post-emergence, postemergence, scale 0 to 100, 0 is no effect, 100 is complete control, read-out: Plant response rating, Pigweed): 95%
- pest or weed control at 125 g/ha ([1]; Amaranthus retroflexus, post-emergence, Postemergence, scale 0 to 100 (0 no effect, 100 complete control), read-out: Plant response rating, Pigweed): 100%
- pest or weed control at 250 g/ha ([1]; Amaranthus retroflexus, post-emergence, Postemergence, 250 g ai/ha, scale 0 to 100 (0 no effect, 100 complete control), read-out: Plant response rating, Pigweed): 100%
- pest or weed control at 31 g/ha ([1]; Amaranthus retroflexus, pre-emergence, Preemergence, scale 0 to 100 (0 no effect, 100 complete control), read-out: Plant response rating, Pigweed): 98%
- pest or weed control at 62 g/ha ([1]; Amaranthus retroflexus, pre-emergence, Preemergence, 62 g ai/ha, scale 0 to 100 (0 no effect, 100 complete control), read-out: Plant response rating, Pigweed): 98%
- pest or weed control at 125 g/ha ([1]; Amaranthus retroflexus, pre-emergence, Preemergence, scale 0 to 100, 0 no effect, 100 complete control, read-out: Plant response rating, Pigweed): 100%
- Pigweed plant response rating [1, 15]: 100
- Plant response rating, Galium [2, 16]: 50
- Plant response rating, Galium [2, 17]: 70
- Plant response rating, Galium [2, 18]: 85
- Galium plant response rating ([2]; 250 g ai/ha, 0 to 100 scale): 95
- Plant response rating, Nightshade [3, 16]: 98
- Plant response rating, Nightshade [3, 17]: 98
- Plant response rating, Nightshade [3, 18]: 100
- Nightshade plant response rating ([3]; 250 g ai/ha, 0 to 100 scale): 100
- Oat, Wild plant response rating (0 to 100 scale) [4, 14]: 40
- pest or weed control at 31 g/ha ([4]; Avena fatua, post-emergence, postemergence, scale 0 to 100, 0 is no effect, 100 is complete control, read-out: Plant response rating, Oat, Wild): 20%
- pest or weed control at 125 g/ha ([4]; Avena fatua, post-emergence, Postemergence, scale 0 to 100 (0 no effect, 100 complete control), read-out: Plant response rating, Oat, Wild): 45%
- pest or weed control at 250 g/ha ([4]; Avena fatua, post-emergence, Postemergence, 250 g ai/ha, scale 0 to 100 (0 no effect, 100 complete control), read-out: Plant response rating, Oat, Wild): 85%
- pest or weed control at 31 g/ha ([4]; Avena fatua, pre-emergence, Preemergence, scale 0 to 100 (0 no effect, 100 complete control), read-out: Plant response rating, Oat, Wild): 0%
- pest or weed control at 62 g/ha ([4]; Avena fatua, pre-emergence, Preemergence, 62 g ai/ha, scale 0 to 100 (0 no effect, 100 complete control), read-out: Plant response rating, Oat, Wild): 5%
- pest or weed control at 125 g/ha ([4]; Avena fatua, pre-emergence, Preemergence, scale 0 to 100, 0 no effect, 100 complete control, read-out: Plant response rating, Oat, Wild): 20%
- Oat, Wild plant response rating [4, 15]: 40
- Plant response rating, Sunflower [5, 16]: 75
- Plant response rating, Sunflower [5, 17]: 80
- Plant response rating, Sunflower [5, 18]: 90
- Sunflower plant response rating ([5]; 250 g ai/ha, 0 to 100 scale): 95
- pest or weed control at 250 g/ha ([6]; 250 g ai/ha, flooded paddy test, visual rating on 0 to 100 scale (0 no effect, 100 complete control) after 13 to 15 days, read-out: Plant response rating, Flood, Ducksalad): 70%
- pest or weed control at 62 g/ha ([6]; Flood (flooded paddy test), 62 g ai/ha, scale of 0 to 100 where 0 is no effect and 100 is complete control, 13 to 15 days, read-out: Plant response rating, Ducksalad): 25%
- pest or weed control at 250 g/ha ([7]; 250 g ai/ha, flooded paddy test, visual rating on 0 to 100 scale (0 no effect, 100 complete control) after 13 to 15 days, read-out: Plant response rating, Flood, Sedge, Umbrella): 70%
- pest or weed control at 62 g/ha ([7]; Flood (flooded paddy test), 62 g ai/ha, scale of 0 to 100 where 0 is no effect and 100 is complete control, 13 to 15 days, read-out: Plant response rating, Sedge, Umbrella): 40%
- pest or weed control at 250 g/ha ([8]; 250 g ai/ha, flooded paddy test, visual rating on 0 to 100 scale (0 no effect, 100 complete control) after 13 to 15 days, read-out: Plant response rating, Flood, Barnyardgrass): 15%
- pest or weed control at 62 g/ha ([8]; Flood (flooded paddy test), 62 g ai/ha, scale of 0 to 100 where 0 is no effect and 100 is complete control, 13 to 15 days, read-out: Plant response rating, Barnyardgrass): 10%
- plant injury at 250 g/ha ([9]; 250 g ai/ha, flooded paddy test, visual rating on 0 to 100 scale (0 no effect, 100 complete control) after 13 to 15 days, read-out: Plant response rating, Flood, Rice): 0%
- plant injury at 62 g/ha ([9]; Flood (flooded paddy test), 62 g ai/ha, scale of 0 to 100 where 0 is no effect and 100 is complete control, 13 to 15 days, read-out: Plant response rating, Rice): 0%
- Chickweed plant response rating (0 to 100 scale) [10, 14]: 98
- pest or weed control at 31 g/ha ([10]; Stellaria media, post-emergence, 360 h, 31 g ai/ha, postemergence, scale 0 to 100, 0 is no effect, 100 is complete control, read-out: Plant response rating, Chickweed): 98%
- pest or weed control at 125 g/ha ([10]; Stellaria media, post-emergence, 360 h, Postemergence, 125 g ai/ha, scale 0 to 100 (0 no effect, 100 complete control), read-out: Plant response rating, Chickweed): 100%
- pest or weed control at 250 g/ha ([10]; Stellaria media, post-emergence, 360 h, Postemergence, 250 g ai/ha, scale 0 to 100 (0 no effect, 100 complete control), read-out: Plant response rating, Chickweed): 100%
- Windgrass plant response rating (0 to 100 scale) [11, 14]: 30
- pest or weed control at 125 g/ha ([11]; Apera spica-venti, post-emergence, 360 h, Postemergence, 125 g ai/ha, scale 0 to 100 (0 no effect, 100 complete control), read-out: Plant response rating, Windgrass): 35%
- Barley plant response rating (0 to 100 scale) [12, 14]: 5
- plant injury at 31 g/ha ([12]; Hordeum vulgare, post-emergence, 31 g ai/ha, postemergence, scale 0 to 100, 0 is no effect, 100 is complete control, read-out: Plant response rating, Barley): 0%
- plant injury at 125 g/ha ([12]; Hordeum vulgare, post-emergence, Postemergence, 125 g ai/ha, scale 0 to 100 (0 no effect, 100 complete control), read-out: Plant response rating, Barley): 5%
- plant injury at 250 g/ha ([12]; Hordeum vulgare, post-emergence, Postemergence, 250 g ai/ha, scale 0 to 100 (0 no effect, 100 complete control), read-out: Plant response rating, Barley): 20%
- Canarygrass plant response rating (0 to 100 scale) [13, 14]: 90
- pest or weed control at 31 g/ha ([13]; Phalaris minor, post-emergence, 360 h, 31 g ai/ha, postemergence, scale 0 to 100, 0 is no effect, 100 is complete control, read-out: Plant response rating, Canarygrass): 65%
- pest or weed control at 250 g/ha ([13]; Phalaris minor, post-emergence, 360 h, Postemergence, 250 g ai/ha, scale 0 to 100 (0 no effect, 100 complete control), read-out: Plant response rating, Canarygrass): 90%
